In PMC7489219 (Molecular Brain, 2020) one finds inhibition data, which are given here for 63 compounds.

The experiment relates to T1, primary mouse cortical neurons.
T1 construct: primary cortical neurons, DIV 10
The experiment in a line: cells. Conditions: Cortical neurone, 20 h, read-out: % inhibition, inhibition of NMDA-induced cell death (protection score), 30 min pre-treatment. Details: Protection from NMDA-induced (30 uM, 10 min) neuronal death; Hoechst nuclear morphology by automated microscopy. Put shortly:
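On DIV 10, primary mouse cortical neurons were given compound at 10 μM for 30 min at 37 °C, then 30 μM NMDA for 10 min, washed, and kept 20 h with compound. Dead cells were scored by nuclear morphology, and % protection was derived from survival relative to vehicle + NMDA and untreated controls.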

Counter-ions that a name gives are not always drawn.

`O=P(O)(O)C(O)(Cc1cccnc1)P(=O)(O)O` [Risedronate sodium]: the inhibition (commonly the relative decrease from the control value, in per cent) at 10 µM was 4.5%.

For `CCCNC(C)C(=O)Nc1ccccc1C` (stereo not drawn) [Prilocaine], the inhibition at 10 µM stood at 7.71%.

With `CCCC(CCC)C(=O)O` [Divalproex sodium], the inhibition at 10 µM stood at 3.49%.

As for `COc1c(N2C[C@@H]3CCCN[C@@H]3C2)c(F)cc2c(=O)c(C(=O)O)cn(C3CC3)c12` [Moxifloxacin hydrochloride], the inhibition at 10 µM amounted to 0.0291%.

Consider `CCOC(=O)C(C)(C)Oc1ccc(Cl)cc1` [Clofibrate (Atromid-S)], for which the inhibition at 10 µM was -1.89%.

In the case of `CCN(CC)CC(=O)Nc1c(C)cccc1C` [Lidocaine (Alphacaine)], the inhibition at 10 µM is -8.6%.

In the case of `CCN[C@H]1C[C@H](C)S(=O)(=O)c2sc(S(N)(=O)=O)cc21` [Dorzolamide HCL], the inhibition at 10 µM is 0.0606%.

Consider `N=C(N)NC(=O)c1nc(Cl)c(N)nc1N` [Amiloride hydrochloride (Midamor)], for which the inhibition at 10 µM was -0.812%.

Regarding `O=C(O)[C@H]1O[C@@H](Oc2cc3oc(-c4ccccc4)cc(=O)c3c(O)c2O)[C@H](O)[C@@H](O)[C@@H]1O` [Baicalin], the inhibition at 10 µM was -3.47%.

For `C=C1C[C@@H]2[C@H](CC[C@]3(C)C(=O)CC[C@@H]23)[C@@]2(C)C=CC(=O)C=C12` [Exemestane], the inhibition at 10 µM is -1.67%.

In the case of `CCCCC(=O)O[C@]1(C(=O)CO)[C@@H](C)C[C@H]2[C@@H]3CCC4=CC(=O)C=C[C@]4(C)[C@@]3(F)[C@@H](O)C[C@@]21C` [Betamethasone valerate (Betnovate)], the inhibition at 10 µM is 6.58%.

For `COc1cc([C@@H]2c3cc4c(cc3[C@@H](O[C@@H]3O[C@@H]5CO[C@@H](c6cccs6)O[C@H]5[C@H](O)[C@H]3O)[C@H]3COC(=O)[C@H]23)OCO4)cc(OC)c1O` [Teniposide (Vumon)], the inhibition at 10 µM is -0.429%.

As for `O=C(/C=C/c1ccc(O)c(O)c1)O[C@@H]1C[C@](O)(C(=O)O)C[C@@H](O)[C@H]1O` [Chlorogenic acid], the inhibition at 10 µM was -2.16%.

As to `CC(C)n1c(/C=C/[C@H](O)C[C@H](O)CC(=O)O)c(-c2ccc(F)cc2)c2ccccc21` (racemic) [Fluvastatin sodium (Lescol)], the inhibition at 10 µM was -2.48%.

Consider `NCC(=O)CCC(=O)O` [5-Aminolevulinic acid hydrochloride], for which the inhibition at 10 µM is -1.27%.

For `CC[C@]1(O)C[C@H]2CN(CCc3c([nH]c4ccccc34)[C@@](C(=O)OC)(c3cc4c(cc3OC)N(C=O)[C@H]3[C@@](O)(C(=O)OC)[C@H](OC(C)=O)[C@]5(CC)C=CCN6CC[C@]43[C@@H]65)C2)C1` [Vincristine], the inhibition at 10 µM is -7.5%.

For the compound `C=CCc1ccc(O)c(-c2ccc(O)c(CC=C)c2)c1` [Honokiol], the inhibition at 10 µM was -2.26%.

For the compound `CCOc1cc(CC(=O)N[C@@H](CC(C)C)c2ccccc2N2CCCCC2)ccc1C(=O)O` [Repaglinide], the inhibition at 10 µM was -4.69%.

`Cc1cc(=O)oc2cc(O)ccc12` [4-Methylumbelliferone (4-MU)]: the inhibition at 10 µM was -0.113%.

For `CC[C@H](CC[C@@H](C)[C@H]1CC[C@H]2[C@@H]3CC=C4C[C@@H](O)CC[C@]4(C)[C@H]3CC[C@]12C)C(C)C` [β-Sitosterol], the inhibition at 10 µM was -0.368%.

With `CC(=O)O[C@@]12CO[C@@H]1C[C@H](O)[C@@]1(C)C(=O)[C@H](O)C3=C(C)[C@@H](OC(=O)[C@H](O)[C@@H](NC(=O)OC(C)(C)C)c4ccccc4)C[C@@](O)([C@@H](OC(=O)c4ccccc4)[C@H]21)C3(C)C` [Docetaxel (Taxotere)], the inhibition at 10 µM is -4.27%.

Regarding `CCC(C)(C)c1ccc(CC(C)CN2C[C@@H](C)O[C@@H](C)C2)cc1` (stereo partly drawn) [Amorolfine Hydrochloride], the inhibition at 10 µM was -45.8%.

On to `C[C@@H]1CC[C@@]2(OC1)O[C@H]1C[C@H]3[C@@H]4CC=C5C[C@@H](O)CC[C@]5(C)[C@H]4CC[C@]3(C)[C@H]1[C@@H]2C` [Diosgenin], for which the inhibition at 10 µM was -1.47%.

As to `O=C1NC(=O)C(c2ccccc2)(c2ccccc2)N1` [Phenytoin (Lepitoin)], the inhibition at 10 µM turned out to be 21.2%.

`Cc1cccc(C)c1NC(=O)CN1CCCC1=O` [Nefiracetam (Translon)]: the inhibition at 10 µM came out at 7.17%.

Regarding `Cn1ccnc1S` [Methimazole (Tapazole, Northyx)], the inhibition at 10 µM amounted to 15.5%.

Take `O=C(c1ccccc1)c1ccc2n1CCC2C(=O)O` (stereo not drawn) [Ketorolac (Toradol)]: the inhibition at 10 µM worked out at 37.4%.

For `C#C[C@]1(O)CC[C@H]2[C@@H]3CCc4cc(O)ccc4[C@H]3CC[C@@]21C` [Ethinyl estradiol], the inhibition at 10 µM came to 57.3%.

As to `CCn1cc(C(=O)O)c(=O)c2ccc(C)nc21` [Nalidixic acid (NegGram)], the inhibition at 10 µM is -2.4%.

As to `O=C(O)C(O)Cc1ccc(O)c(O)c1` (stereo not drawn) [Sodium Danshensu], the inhibition at 10 µM was 6.44%.

`C[C@@H](NCCCc1cccc(C(F)(F)F)c1)c1cccc2ccccc12` [AMG-073 HCl (Cinacalcet hydrochloride)]: the inhibition at 10 µM is -14.8%.

Regarding `CC(C[N+](C)(C)C)OC(N)=O` (stereo not drawn) [Bethanechol chloride], the inhibition at 10 µM is -1.35%.

Regarding `COc1cnc(NS(=O)(=O)c2ccc(N)cc2)nc1` [Sulfameter (Bayrena)], the inhibition at 10 µM amounted to 28.2%.

As for `COc1ccc(-c2coc3cc(O)cc(O)c3c2=O)cc1` [Biochanin A (4-Methylgenistein)], the inhibition at 10 µM came to 3%.

Consider `C[C@H](CCC(=O)O)[C@H]1CC[C@H]2[C@@H]3[C@H](O)C[C@@H]4C[C@H](O)CC[C@]4(C)[C@H]3CC[C@]12C` [Chenodeoxycholic acid], for which the inhibition at 10 µM was -2.92%.

For `CN(C)/N=N/c1nc[nH]c1C(N)=O` [Dacarbazine (DTIC-Dome)], the inhibition at 10 µM is -1.39%.

As for `NCCc1ccc(O)c(O)c1` [Dopamine hydrochloride (Inotropin)], the inhibition at 10 µM was -1.44%.

As to `CN1[C@@H]2CC[C@H]1CC(OC(=O)C(CO)c1ccccc1)C2` (stereo partly drawn) [Atropine], the inhibition at 10 µM was 9.73%.

In the case of `NC[C@@H]1O[C@H](O[C@H]2[C@@H](O)[C@H](O[C@@H]3[C@@H](O)[C@H](N)C[C@H](N)[C@H]3O[C@H]3O[C@H](CN)[C@@H](O)[C@H](O)[C@H]3N)O[C@@H]2CO)[C@H](N)[C@@H](O)[C@@H]1O` [Neomycin sulfate], the inhibition at 10 µM is -1.47%.

Turning to `COc1ccc(-c2cc(=O)c3c(OC)c(OC)c(OC)c(OC)c3o2)cc1` [Tangeretin (Tangeritin)], the inhibition at 10 µM is -0.746%.

For `O=c1cc(-c2ccc(O)c(O)c2)oc2cc(O)cc(O)c12` [Luteolin], the inhibition at 10 µM is -2.28%.

On to `CNCCC(Oc1ccc(C(F)(F)F)cc1)c1ccccc1` (stereo not drawn) [Fluoxetine HCl], for which the inhibition at 10 µM is -11.1%.

As to `Cc1cc(O)c2c(c1)C(=O)c1cccc(O)c1C2=O` [Chrysophanic acid (Chrysophanol)], the inhibition at 10 µM amounted to 8.58%.

As to `CC(C)(C#N)c1cc(Cn2cncn2)cc(C(C)(C)C#N)c1` [Anastrozole], the inhibition at 10 µM came out at 3.89%.

On to `Nc1nc2c(ncn2[C@@H]2O[C@H](CO)[C@@H](O)[C@H]2O)c(=O)[nH]1` [Guanosine], for which the inhibition at 10 µM is -1.96%.

As for `OC[C@@H](O)[C@@H](O)[C@H](O)[C@H](O)CO` [D-Mannitol (Osmitrol)], the inhibition at 10 µM turned out to be 5.76%.

Consider `CNCC(O)c1ccc(O)cc1` (stereo not drawn) [Synephrine (Oxedrine)], for which the inhibition at 10 µM is 3.83%.

With `COc1ccc(/C=C/C(=O)Nc2ccccc2C(=O)O)cc1OC` [Tranilast (SB 252218)], the inhibition at 10 µM was -11.4%.

In the case of `OC[C@H]1OC(O)[C@H](O)[C@@H](O)[C@@H]1O` (stereo partly drawn) [Dextrose (D-glucose)], the inhibition at 10 µM was -6.8%.

On to `Nc1nc2[nH]cc(CCc3ccc(C(=O)N[C@@H](CCC(=O)O)C(=O)O)cc3)c2c(=O)[nH]1` [Pemetrexed], for which the inhibition at 10 µM turned out to be 0.519%.

As to `O=C(O)C1=C[C@@H](O)[C@@H](O)[C@H](O)C1` [Shikimic acid (Shikimate)], the inhibition at 10 µM turned out to be 0.278%.

`COc1cc([C@@H]2c3cc4c(cc3[C@@H](O[C@@H]3O[C@@H]5CO[C@@H](C)O[C@H]5[C@H](O)[C@H]3O)[C@H]3COC(=O)[C@H]23)OCO4)cc(OC)c1O` [Etoposide (VP-16)]: the inhibition at 10 µM was -11.8%.

With `COc1ccc2[nH]c([S@@+]([O-])Cc3ncc(C)c(OC)c3C)nc2c1` [Esomeprazole sodium (Nexium)], the inhibition at 10 µM turned out to be 21.3%.

For `CC=CC1=C(C(=O)O)N2C(=O)[C@@H](NC(=O)[C@H](N)c3ccc(O)cc3)[C@H]2SC1` (mixture of isomers) [Cefprozil hydrate (Cefzil)], the inhibition at 10 µM is 0.674%.

`NC(=O)NO` [Hydroxyurea (Cytodrox)]: the inhibition at 10 µM was -2.47%.

As to `O=C(c1ccc(OCCN2CCCCC2)cc1)c1c(-c2ccc(O)cc2)sc2cc(O)ccc12` [Evista (Raloxifene Hydrochloride)], the inhibition at 10 µM is -19.3%.

`COCCOC(=O)C1=C(C)NC(C)=C(C(=O)OC(C)C)C1c1cccc([N+](=O)[O-])c1` (stereo not drawn) [Nimodipine (Nimotop)]: the inhibition at 10 µM is -0.576%.

With `CC(C)Oc1ccc2c(=O)c(-c3ccccc3)coc2c1` [Ipriflavone], the inhibition at 10 µM is -1.69%.

With `C=C1C[C@@]2(O)O[C@@]3(C[C@H]2C(C)C)[C@@H](C)CC[C@@H]13` [Curcumol], the inhibition at 10 µM was found to be 7.41%.

Turning to `O=C1c2c(O)cc(O)cc2O[C@H](c2cc(O)c(O)c(O)c2)[C@H]1O` [Dihydromyricetin (Ampeloptin)], the inhibition at 10 µM was found to be 21.4%.

On to `Cc1nc(Nc2ncc(C(=O)Nc3c(C)cccc3Cl)s2)cc(N2CCN(CCO)CC2)n1` [Dasatinib (BMS-354825)], for which the inhibition at 10 µM was -9.79%.

For the compound `CC[C@@H]([C@H](C)O)n1ncn(-c2ccc(N3CCN(c4ccc(OC[C@@H]5CO[C@@](Cn6cncn6)(c6ccc(F)cc6F)C5)cc4)CC3)cc2)c1=O` [Posaconazole], the inhibition at 10 µM was -12.5%.

On to `O=c1[nH]c(=O)n([C@H]2C[C@H](O)[C@@H](CO)O2)cc1F` [Floxuridine], for which the inhibition at 10 µM is -8.07%.
